Measured values published in US20020045606A1, “Esters of vitamin D3 and uses thereof” (priority 1999, published 2002).

Key:
UMR 106 cells [1] = experiment: Metabolism of 1α,25(OH)2-16-ene-D3 analogs into less polar fatty acid ester metabolites in bone cells; assay type: in vitro ADME, rat; conditions: 10 μM analog incubated 24 h in UMR 106 cells; HPLC (FIG. 1)
Protocol: As described herein, various analogs of 1α,25(OH)2-D3, such as 1α,25(OH)2-16-ene-D3 analogs are metabolized into less polar metabolites in the rat osteosarcoma cell line UMR 106. UMR 106 cells were cultured in an humidified atmosphere at 37° C. in 95% air and 5% CO2. MacCoy's culture medium, containing 10% fetal calf serum (FCS), antibiotics (100 IU/mL penicillin and 100 μg/mL streptomycin) and […], was used. Cells became confluent ten days after seeding, and were then incubated with analog. Samples (structures shown in Table 2) of 1α,25(OH)2-16-ene-D3, 1α,25(OH)2-16-ene-3-epi-D3, 1α,25(OH)2-16-ene-20-epi-D3, 1α,25(OH)2-16-ene-20-epi-3-epi-D3, and 1α,25(OH)2-16-ene-23-yne-D3 were dissolved in ethanol to a final concentration of 10 μM and incubated in 50 mL for 24 h. Each analog was incubated in three culture bottles. Incubation was stopped by adding 10 mL methanol to each culture bottle. Culture bottles were stored at −20° C.
Lipid extraction was initiated by first adding two volumes of methanol to each culture bottle from Example I. The protein precipitate was separated from the supernatant by centrifugation at 3000 rpm at 4° C. for 15 min. The supernatant was mixed with four volumes of dichloromethane in a separatory funnel. The lower organic phase was collected and dried under nitrogen gas at 50° C. After reconstitution in 10% isopropanol/hexane, the lipid extract was analyzed by high-performance liquid chromatography (HPLC).
HPLC was performed with a Waters System Controller (Model 600E) equipped with a photodiode array detector (Model PDA 990) to monitor UV absorption at 265 nm. A Zorbax SIL 9.4×250 mm column (DuPont, Wilmington, Del.) was used for all straight phase systems. The corresponding analog was added to each lipid extract and the solutions were then subjected to a straight phase HPLC system using 10% isopropanol/hexane at a flow rate of 2 mL/min. (HPLC system I). Fractions were collected from 0 min. to 12 min. These fractions were further subjected to a straight phase HPLC system using 2% isopropanol/hexane at a flow rate of 2 mL/min. (HPLC system II).

UMR 106 cells [2] = experiment: Distribution of esters and substrates between cells and media, UMR 106; assay type: in vitro ADME, rat; conditions: lipid extraction from media and cells separately, HPLC system I
Protocol: Peaks H2-A and H3-A were obtained and purified as described in Example II. In addition, UMR 106 cells were incubated with 1α,25(OH)2-16-ene-20-epi-D3 and 1α,25(OH)2-16-ene-20-epi-3-epi-D3, as described in Example I.
The lipid extraction was carried out from media and cells separately and together, as described in Example II. HPLC was performed with a Waters System Controller (Model 600E) equipped with a photodiode array detector (Model PDA 990) to monitor UV absorption at 265 nm. A Zorbax SIL 9.4×250 mm column (DuPont, Wilmington, Del.) was used for all straight phase systems. Each lipid extract was analyzed using HPLC system I.

| distribution between cells and media (UMR 106 cells [2]) | SMILES | amount of less polar fatty acid ester metabolites produced (UMR 106 cells [1]) |
| --- | --- | --- |
| – | C=C1/C(=C\C=C2/CCC[C@]3(C)C([C@@H](C)CC#CC(C)(C)O)=CCC23)C[C@@H](O)C[C@@H]1O (stereo partly drawn) [1α,25(OH)2-16-ene-23-yne-D3] | reduced |
| distributed primarily in the media | C=C1/C(=C\C=C2/CCC[C@]3(C)C([C@@H](C)CCCC(C)(C)O)=CCC23)C[C@@H](O)C[C@@H]1O (stereo partly drawn) [1α,25(OH)2-16-ene-20-epi-D3] | a greater increase in the amount of the less polar fatty acid ester metabolites |
| – | C=C1/C(=C\C=C2/CCC[C@]3(C)C([C@H](C)CCCC(C)(C)O)=CCC23)C[C@@H](O)C[C@@H]1O (stereo partly drawn) [1α,25(OH)2-16-ene-D3] | production of the less polar fatty acid ester metabolites |
| distributed primarily in the media | C=C1/C(=C\C=C2/CCC[C@]3(C)C([C@@H](C)CCCC(C)(C)O)=CCC23)C[C@H](O)C[C@@H]1O (stereo partly drawn) [1α,25(OH)2-16-ene-20-epi-3-epi-D3] | enhanced even further |
| – | C=C1/C(=C\C=C2/CCC[C@]3(C)C([C@H](C)CCCC(C)(C)O)=CCC23)C[C@H](O)C[C@@H]1O (stereo partly drawn) [1α,25(OH)2-16-ene-3-epi-D3] | slightly greater amounts of one of the less polar metabolites |
